Assay [1] has as its system hyperalgesia model induced by complete ligation of the L5/L6 spinal nerves. In words: Mechanical stimulation test (Dynamic Plantar Aesthesiometer), left plantar pain threshold in hyperalgesia model. Format: in vivo, rats. The following applies: for maximum pain threshold following administration (mechanical stimulation): measured 20, 40, 60 min after administration, male rats; for change of pain threshold versus saline control, in words (mechanical stimulation): intraperitoneal, effective doses, Dunnett's multiple comparison test. How it is done: (§1) Use was made of a hyperalgesia model induced by complete ligation of the L5/L6 spinal nerves in five- to seven-week-old male rats as the experimental animals.
(§2) Mechanical stimulation tests were carried out using the Ugo Basile Model 37400 Dynamic Plantar Aesthesiometer, and thermal stimulation tests were carried out using a plantar thermal stimulation tester (Plantar Test 7370, Ugo Basile). The pain thresholds of the feet on each model animal were measured, and the animals were divided into groups having uniform pain thresholds as measured prior to administration on each day of the experiment. In mechanical stimulation, animals for which the model animal foot pain threshold was 8.0 g or more were excluded from the tests. In thermal stimulation, animals for which the pain threshold for the model foot was 10 seconds or more were excluded from the tests.
(§3) The required amount of the test substance was weighed out and dissolved in physiological saline as the medium. A 2 mg/ml solution was prepared as the highest concentration mixture in the low dosage study, and a 24 mg/ml solution was prepared as the highest concentration mixture in the high dosage study. Solutions at the various concentrations were all prepared at the time of use by suitably diluting these highest concentration mixtures.
Although the object here is to ascertain the direct effect of the test substance on the spinal cord, because the substance has been confirmed to pass through the blood-brain barrier, intraperitoneal administration, which is a simple method of administration, was employed. Using the syringe barrel and needle, a volume of 5 ml/kg was administrated intraperitoneally.
Groups of five male rats (333.7 to 414.2 g) in which the hyperalgesia model had been induced were used.
Groups of five male rats (372.0 to 459.5 g) in which the hyperalgesia model had been induced were used.
Groups of five male rats (295.6 to 356.6 g) in which the hyperalgesia model had been induced were used. […]

For assay [2] the test system is unchanged. In words: Thermal stimulation test (plantar thermal stimulation tester), left plantar pain threshold in hyperalgesia model. Type of assay: in vivo, rats. As to conditions: for maximum pain threshold following administration (thermal stimulation): thermal stimulation intensity 35, measured 20, 40, 60 min after administration, male rats; for change of pain threshold versus saline control, in words (thermal stimulation): intraperitoneal, effective doses. How it is done: as §1, §2, §3
Using the syringe barrel and needle, a volume of 5 ml/kg was administrated intraperitoneally.
Groups of five male rats (356.7 to 444.0 g) in which the hyperalgesia model had been induced were used.
Groups of five male rats (400.3 to 499.9 g) in which the hyperalgesia model had been induced were used.
Groups of five male rats (324.8 to 399.0 g) in which the hyperalgesia model had been induced were used.
Groups of five male rats (307.0 to 393.1 g) in which the hyperalgesia model had been induced were used. A plantar thermal stimulation tester set to a thermal stimulation intensity of 35 was used to measure the left plantar pain threshold before naloxonazine administration, and 20 minutes, 40 minutes and 60 minutes after administration.
Groups of five male rats (365.3 to 437.2 g) in which the hyperalgesia model had been induced were used. A plantar thermal stimulation tester set to a thermal stimulation intensity of 35 was used to measure the left plantar pain threshold before naltrindole administration, and 20 minutes, 40 minutes and 60 minutes after administration.

Where [3] appears, read: high dose study, 30-120 mg/kg intraperitoneal.

Take `C=CCN1CC[C@]23c4c5ccc(O)c4O[C@H]2/C(=N/N=C2\CC[C@@]4(O)[C@H]6Cc7ccc(O)c8c7[C@@]4(CCN6CC=C)[C@H]2O8)CC[C@@]3(O)[C@H]1C5` [naloxonazine]: the entries for the “maximum pain threshold following administration (mechanical stimulation)” value in assay [1] (0.3 mg/kg intraperitoneal), in assay [1] (3 mg/kg intraperitoneal) and in assay [1] (30 mg/kg intraperitoneal) were 4.9 g, 8.6 g and 14.5 g, respectively. Besides, the “change of pain threshold versus saline control, in words (mechanical stimulation)” value (“change … (mechanical stimulation)” for short) in assay [1] was “rose significantly with the administration of 3 and 30 mg/kg”. Besides, the “maximum pain threshold following administration (thermal stimulation)” value in assay [2] (0.3 mg/kg intraperitoneal) is 6.9 s; in assay [2] (3 mg/kg intraperitoneal), 7.9 s; in assay [2] (30 mg/kg intraperitoneal), 12.3 s. In addition, the “change of pain threshold versus saline control, in words (thermal stimulation)” value (“change … (thermal stimulation)” for short) in assay [2] is listed as “rose significantly with the administration of 30 mg/kg”.

Take `C=CCN1CC[C@]23c4c5ccc(O)c4O[C@H]2C(=O)CC[C@@]3(O)[C@H]1C5` [naloxone]: the “maximum pain threshold following administration (mechanical stimulation)” value in assay [1] (0.1 mg/kg intraperitoneal) is 5.8 g; in assay [1] (1 mg/kg intraperitoneal), 7.7 g; in assay [1] (10 mg/kg intraperitoneal) it was 9.5 g; in assay [1] (30 mg/kg intraperitoneal), 10.4 g; in assay [1] (60 mg/kg intraperitoneal) it was 10.6 g; in assay [1] (120 mg/kg intraperitoneal), 10.3 g. For the same molecule, in assay [1] (setting [3]), the “dose at which the analgesic effect reached its peak (mechanical stimulation)” value is given as 60 mg/kg. The “change … (mechanical stimulation)” value in assay [1] was “rose significantly with the administration of 1 mg and 10 mg”. For the same molecule, the “maximum pain threshold following administration (thermal stimulation)” value in assay [2] (0.1 mg/kg intraperitoneal) came out at 7.2 s; in assay [2] (1 mg/kg intraperitoneal) it was 9.2 s; in assay [2] (120 mg/kg intraperitoneal), 23.8 s. Also, the “dose at which the analgesic effect reached its peak (thermal stimulation)” value in assay [2] (setting [3]) came to 30 mg/kg. Further, in assay [2], the “change … (thermal stimulation)” value is on record as “rose significantly with the administration of 10 mg”.

With `O=C1CC[C@@]2(O)[C@H]3Cc4ccc(O)c5c4[C@@]2(CCN3CC2CC2)[C@H]1O5` [naltrexone], the entries for the “maximum pain threshold following administration (mechanical stimulation)” value in assay [1] (0.3 mg/kg intraperitoneal), in assay [1] (3 mg/kg intraperitoneal) and in assay [1] (30 mg/kg intraperitoneal) were 5.1 g, 6.7 g and 10.1 g, respectively. Further, the “change … (mechanical stimulation)” value in assay [1] was “rose significantly with the administration of 30 mg/kg”. Also, the “maximum pain threshold following administration (thermal stimulation)” value in assay [2] (0.3 mg/kg intraperitoneal) is 7.7 s. Further, the “change … (thermal stimulation)” value in assay [2] is “rose significantly with the administration of 3 and 30 mg/kg”.

As to `Oc1ccc2c3c1O[C@H]1c4[nH]c5ccccc5c4C[C@@]4(O)[C@@H](C2)N(CC2CC2)CC[C@]314` [naltrindole], the “maximum pain threshold following administration (mechanical stimulation)” value in assay [1] (0.3 mg/kg intraperitoneal) was determined as 5.8 g; in assay [1] (3 mg/kg intraperitoneal), 9.4 g; in assay [1] (30 mg/kg intraperitoneal), 14.1 g. In assay [1], the “change … (mechanical stimulation)” value is “rose significantly with the administration of 3 and 30 mg/kg”. In addition, the “maximum pain threshold following administration (thermal stimulation)” value in assay [2] (0.3 mg/kg intraperitoneal) was found to be 7.0 s; in assay [2] (3 mg/kg intraperitoneal) it was 9.2 s; in assay [2] (30 mg/kg intraperitoneal), 9.2 s. The “change … (thermal stimulation)” value in assay [2] is “rose significantly with the administration of 3 and 30 mg/kg”.

Values taken from patent publication US20070299098A1, “Therapeutic Agent for Neuropathic Pain” (Japan Science and Technology Agency, priority 2004, published 2007).
